Test results published in PMC12321279, “Novel 4,5‐Dihydrothiazole‐Phenylpiperazine Derivatives: Synthesis, Docking Studies and Pharmacological Evaluation as Serotonergic Agents” (Chemmedchem, 2025).

Legend:
larval zebrafish [1] = assay: PTZ‐induced acute seizure assay in larval zebrafish; format: in vivo, zebrafish (Danio rerio); conditions: 5 dpf larvae, 20 h incubation at maximum‐tolerated concentration (FG‐1 500 μM, FG‐18 25 μM), PTZ 20 mM, 30 min
Description: (§1) All experiments were conducted on zebrafish (Danio rerio) larvae up to 5 days post fertilization (dpf), therefore, in accordance with current European legislation, ethical permission to conduct assays was not required. However, housing and experimental procedures were performed in compliance with the National Institute of Health Guidelines for the Care and Use of Laboratory Animals and the European Union Directive of 22 September 2010 (2010/63/EU) on protecting animals used for scientific purposes. All efforts were taken to minimize larvae stress and suffering. Larvae were euthanized with an overdose of tricaine ([…]). […] Before the respective behavioral tests were conducted, larvae at 4 dpf were incubated for 20 h in different arylpiperazine derivatives solutions of maximum‐tolerated concentrations (MCTs), determined during toxicological screening.^[ [30], [32] ^] […] Basic locomotor activity was measured using an automated tracking device, Daniovision by Noldus, and the total distance traveled was quantified using EthoVision XT software of the same company (Wageningen, the Netherlands) over a 30 min long observation period. […] The PTZ‐induced hyperlocomotion (acute seizure assay) was assessed in 5 dpf larval zebrafish (after 20 h incubation with tested derivatives at MCTs). […] Similarly, the data were recorded as the distance traveled (mm) by larvae when exposed to alternating lightning. […]

larval zebrafish [2] = assay: Light–dark transition assay in larval zebrafish; format: in vivo, zebrafish (Danio rerio); conditions: 5 dpf larvae, 20 h incubation at maximum‐tolerated concentration (FG‐1 500 μM, FG‐18 25 μM)
Description: as §1

mice [3] = assay: Spontaneous locomotor activity; format: in vivo; conditions: 20 min observation
Description: (§2) The tests were performed on male white mice of the Albino Swiss strain, whose weight was between 24 and 30 g in Experimental Medicine Center, Medical University of Lublin, Poland. The animals were housed (four/five per cage). Before conducting the experimental tests, the animals were subjected to an adaptation that lasted seven days. This consisted of keeping them in a room with relatively constant conditions: a temperature of 22 ± 1 °C, a humidity of 55 ± 5% and lighting that mimicked the natural day and night rhythm (12 h/12 h). Constant access to food and water was provided. Standard feed—LSM Motycz pelleted feed—and tap water were used. Mice were randomly allocated to study groups. Each group was represented by 8–10 animals, depending on the research schedule. The experiments were performed according to the procedures set out in the regulations for animal experiments: National Institute of Health Guidelines for the Care and Use of Laboratory Animals (8th edition) and to the European Community Council Directive for the Care and Use of Laboratory Animals of 22 September 2010 (2010/63/EU). The study was approved by the Local Ethical Committee in Lublin (number of ethical approvals: 27/2023). Tested compounds: FG‐1, FG‐4, FG‐5, FG‐6, FG‐7, FG‐8, and FG‐18 were finely ground in mortars with the addition of the emulsifier Tween‐80. A suspension was obtained, which was then diluted with aqueous solution of 0.5% methylcellulose (tylose). The mixture was then administered intraperitoneally (i.p.) to the animals 60 min before the start of the experiments. Animals in the control groups received a 0.5% tylose solution. All substances were administered via the same route of administration in appropriate dose and volume of 0.1 mL per 10 g of animal body weight. Prior to the administration of the drug, the animals were weighed, during the interval between tests, they were provided with food, water, and constant living conditions.
An Opto‐Varimex‐4 Auto‐Track animal activity meter (Columbus Instruments, USA) was used to study animal movement, which consists of eight transparent cages with lids measuring 43 × 43 × 32 cm, a set of four infrared transmitters (each transmitter has 16 laser beams) and four detectors to monitor animal movements. Testing was initiated 60 min after compound administration. For the spontaneous locomotor activity study, tylose was administered to the control group and the tested compounds. For the amphetamine‐induced or MK‐801‐induced hyperactivity tests, tylose, the tested compounds and after 30 min, amphetamine (3 mg kg^−1) or MK‐801 (0.3 mg kg^−1) were administered. While the test was being performed, animals were individually caged, initially for 5 min of adaptation, followed by 20 min of actual mobility testing.

mice [4] = assay: Body temperature in normothermic mice; format: in vivo
Description: The tests were performed on male white mice of the Albino Swiss strain, whose weight was between 24 and 30 g in Experimental Medicine Center, Medical University of Lublin, Poland. The animals were housed (four/five per cage). Before conducting the experimental tests, the animals were subjected to an adaptation that lasted seven days. This consisted of keeping them in a room with relatively constant conditions: a temperature of 22 ± 1 °C, a humidity of 55 ± 5% and lighting that mimicked the natural day and night rhythm (12 h/12 h). Constant access to food and water was provided. Standard feed—LSM Motycz pelleted feed—and tap water were used. Mice were randomly allocated to study groups. Each group was represented by 8–10 animals, depending on the research schedule. […]
Body temperature in normothermic mice was measured in the rectum of animals by thermistor thermometer till 120 min after tested compounds injection. […] The final temperature (tf) was measured 30, 60, 90, and 120 min after the injection of tested compounds. Body temperature changes (Δt) were calculated according to the formula: Δt = tf − ti.

mice [5] = assay: Amphetamine‐induced hyperactivity test; format: in vivo; conditions: 30 mg/kg i.p. 60 min before test, amphetamine 3 mg kg^−1 s.c., 20 min observation
Description: as §2, with “A suspension was obtained, which was then diluted with aqueous solution of 0.5% methylcellulose (tylose). The mixture was then administered intraperitoneally (i.p.) to the animals 60 min before the start of the experiments. Animals in the control groups received a 0.5% tylose solution. All substances were administered via the same route of administration in appropriate dose and volume of 0.1 mL per 10 g of animal body weight. Prior to the administration of the drug, the animals were weighed, during the interval between tests, they were provided with food, water, and constant living conditions.” left out

[6] = 15 mg kg^−1 i.p. 60 min before test
[7] = 30 mg/kg i.p. 60 min before test

SMILES	distance traveled by PTZ‐exposed larvae (seizure‐like behavior) (larval zebrafish [1])	larval behavior under the dark conditions (light–dark transition) (larval zebrafish [2])	spontaneous locomotor activity (mice [3]; [6])	spontaneous locomotor activity (mice [3]; [7])	amphetamine‐induced hyperactivity (mice [5])	other results
O=C(NCCCN1CCN(c2ccc(C3=NCCS3)cc2)CC1)C1CC2C=CC1C2 (stereo not drawn) [FG‐18, Endo‐ N‐(3‐(4‐(4‐(4,5‐dihydrothiazol‐2‐yl)phenyl)piperazin‐1‐yl)propyl) bicyclo[2.2.1]hept‐5‐ene‐2‐carboxamide]	significantly increased the distance traveled	influenced larval behavior under the dark conditions				
O=C1C2C3C=CC(C3)C2C(=O)N1OCCCN1CCN(c2ccccc2C2=NCCS2)CC1 (stereo not drawn) [FG‐7, 2‐(3‐(4‐(2‐(4,5‐dihydrothiazol‐2‐yl) phenyl) piperazin‐1‐yl) propoxy)‐3a,4,7,7a‐tetrahydro‐1 H‐4,7‐methanoisoindole‐1,3(2 H)‐dione]			did not change the motility of mice	significant decrease in spontaneous locomotor activity		
O=C(NCCCN1CCN(c2ccc(C3=NCCS3)cc2)CC1)c1ccncc1 [FG‐6, N‐(3‐(4‐(4‐(4,5‐dihydrothiazol‐2‐yl) phenyl) piperazin‐1‐yl) propyl) isonicotinamide]			did not change the motility of mice	significant decrease in spontaneous locomotor activity		body temperature of normothermic mice (mice [4]; 15 mg kg^−1 i.p., from 30 to 90 min and also in 120 min): significant decrease in the body temperature
O=C(NCCCN1CCN(c2cccc(C3=NCCS3)c2)CC1)c1ccncc1 [FG‐5, N‐(3‐(4‐(3‐(4,5‐dihydrothiazol‐2‐yl) phenyl) piperazin‐1‐yl) propyl) isonicotinamide]						body temperature of normothermic mice (mice [4]; 30 mg kg^−1 i.p., from 30 to 90 min): significant decrease in the body temperature
O=C(NCCCN1CCN(c2ccccc2C2=NCCS2)CC1)c1ccncc1 [FG‐4, N‐(3‐(4‐(2‐(4,5‐dihydrothiazol‐2‐yl) phenyl) piperazin‐1‐yl) propyl) isonicotinamide]					significant decrease in amphetamine‐induced hyperactivity	
O=C(NCCCN1CCN(c2ccccc2C2=NCCS2)CC1)c1ccccn1 [FG‐1, N‐(3‐(4‐(2‐(4,5‐dihydrothiazol‐2‐yl) phenyl) piperazin‐1‐yl) propyl) picolinamide]	substantially decreased	influenced larval behavior under the dark conditions			significant decrease in amphetamine‐induced hyperactivity	
